For 14 molecules, T/C results are on record in PubChem BioAssay AID180 (DTP/NCI, 2004).

SMILES strings stand for the structures. Values joined by “and” are separate entries in the source; they are usually repeats but may differ in a detail not shown here. Equal entries are not always repeated.

In this experiment the test system is BDF1 mice, Adenocarcinoma 755 s.c., tumor weight T/C. Put plainly: NCI In Vivo Anticancer Drug Screen. Data for tumor model Adenocarcinoma 755 (subcutaneous) in B6D2F1 (BDF1) mice. The note with it: endpoint: mean tumor weight, higher = larger tumour. Summed up: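 In vivo antitumor screen on a transplantable tumor line. Result equals the measure in compound-treated animals divided by the same measure in vehicle controls.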

[1] abbreviates: dose: 125.0 mg/kg/injection, schedule: Q01DX011 (ip), vehicle: methylcellulose (MC).
The mark [2] stands for this setting: dose: 250.0 mg/kg/injection, schedule: Q01DX011 (ip), vehicle: methylcellulose (MC).
Where [3] appears, read: dose: 50.0 mg/kg/injection, schedule: Q01DX011 (ip), vehicle: carboxymethylcellulose (CMC).
The mark [4] stands for this setting: dose: 15.0 mg/kg/injection, schedule: Q01DX011 (ip), vehicle: carboxymethylcellulose (CMC).
Setting [5] is: dose: 60.0 mg/kg/injection, schedule: Q01DX011 (ip), vehicle: carboxymethylcellulose (CMC).
Setting [6] is: dose: 15.0 mg/kg/injection, schedule: Q01DX011 (ip), vehicle: methylcellulose (MC).
[7] abbreviates: dose: 31.0 mg/kg/injection, schedule: Q01DX011 (ip), vehicle: methylcellulose (MC).
Setting [8] is: dose: 62.0 mg/kg/injection, schedule: Q01DX011 (ip), vehicle: methylcellulose (MC).

For `CCOC(N)=O`, the T/C reads like this: (dose: 62.5 mg/kg/injection, schedule: Q#A X022 (ip), vehicle: saline) 52 % of control; (dose: 62.62 mg/kg/injection, schedule: Q01DX011 (ip), vehicle: carboxymethylcellulose (CMC)) 79 % of control; (dose: 102.5 mg/kg/injection, schedule: Q01DX011 (ip), vehicle: carboxymethylcellulose (CMC)) 94 % of control; (dose: 125.0 mg/kg/injection, schedule: Q01DX001 (ip), vehicle: saline) 121 % of control; (dose: 125.0 mg/kg/injection, schedule: Q01DX006 (iv), vehicle: saline) 75 % of control; (dose: 125.0 mg/kg/injection, schedule: Q01DX011 (im), vehicle: saline) 83 % of control. The T/C is 85 % of control under setting [1]; 68 % of control (dose: 125.0 mg/kg/injection, schedule: Q01DX011 (ip), vehicle: saline); 96 % of control (dose: 125.0 mg/kg/injection, schedule: Q01DX011 (sc), vehicle: saline); 104 % of control (dose: 125.0 mg/kg/injection, schedule: Q07DX002 (ip), vehicle: saline); 59 % of control (dose: 125.0 mg/kg/injection, schedule: Q#A X022 (ip), vehicle: saline); 63 % of control (dose: 125.25 mg/kg/injection, schedule: Q01DX011 (ip), vehicle: carboxymethylcellulose (CMC)). The T/C is 41 % of control and 50 % of control (dose: 200.4 mg/kg/injection, schedule: Q01DX011 (ip), vehicle: carboxymethylcellulose (CMC)); 116 % of control (dose: 205.0 mg/kg/injection, schedule: Q01DX011 (ip), vehicle: carboxymethylcellulose (CMC)); 92 % of control and 93 % of control (dose: 250.0 mg/kg/injection, schedule: Q01DX001 (ip), vehicle: saline); 74 % of control (dose: 250.0 mg/kg/injection, schedule: Q01DX006 (iv), vehicle: saline); 65 % of control (dose: 250.0 mg/kg/injection, schedule: Q01DX011 (im), vehicle: saline); 53 % of control under setting [2]. Moreover, the T/C (dose: 250.0 mg/kg/injection, schedule: Q01DX011 (ip), vehicle: saline) was 51 % of control; the T/C (dose: 250.0 mg/kg/injection, schedule: Q01DX011 (oral), vehicle: saline) was 69 % of control; the T/C (dose: 250.0 mg/kg/injection, schedule: Q01DX011 (sc), vehicle: saline) was 67 % of control; the T/C (dose: 250.0 mg/kg/injection, schedule: Q07DX002 (ip), vehicle: saline) is 85 % of control; the T/C (dose: 250.0 mg/kg/injection, schedule: Q#A X022 (ip), vehicle: saline) was 9 % of control; the T/C (dose: 328.0 mg/kg/injection, schedule: Q01DX011 (ip), vehicle: carboxymethylcellulose (CMC)) was 41 % of control and 52 % of control. Also, the T/C is, setting by setting: (dose: 375.0 mg/kg/injection, schedule: Q03DX004 (ip), vehicle: saline) 59 % of control; (dose: 500.0 mg/kg/injection, schedule: Q01DX001 (ip), vehicle: saline) 110 % of control and 85 % of control; (dose: 500.0 mg/kg/injection, schedule: Q01DX006 (iv), vehicle: saline) 38 % of control; (dose: 500.0 mg/kg/injection, schedule: Q01DX011 (im), vehicle: saline) 32 % of control; (dose: 500.0 mg/kg/injection, schedule: Q01DX011 (ip), vehicle: methylcellulose (MC)) 33 % of control; (dose: 500.0 mg/kg/injection, schedule: Q01DX011 (ip), vehicle: saline) 19 % of control. Moreover, the T/C runs as follows: (dose: 500.0 mg/kg/injection, schedule: Q01DX011 (oral), vehicle: saline) 20 % of control; (dose: 500.0 mg/kg/injection, schedule: Q01DX011 (sc), vehicle: saline) 42 % of control; (dose: 500.0 mg/kg/injection, schedule: Q07DX002 (ip), vehicle: saline) 83 % of control; (dose: 501.0 mg/kg/injection, schedule: Q01DX011 (ip), vehicle: carboxymethylcellulose (CMC)) 17 % of control and 27 % of control; (dose: 546.6 mg/kg/injection, schedule: Q01DX011 (ip), vehicle: carboxymethylcellulose (CMC)) 22 % of control and 23 % of control; (dose: 750.0 mg/kg/injection, schedule: Q03DX004 (ip), vehicle: saline) 54 % of control. Further, the T/C is 10 % of control and 20 % of control (dose: 820.0 mg/kg/injection, schedule: Q01DX011 (ip), vehicle: carboxymethylcellulose (CMC)); 49 % of control and 64 % of control (dose: 1000.0 mg/kg/injection, schedule: Q01DX001 (ip), vehicle: saline); 21 % of control (dose: 1000.0 mg/kg/injection, schedule: Q01DX006 (iv), vehicle: saline); 69 % of control (dose: 1000.0 mg/kg/injection, schedule: Q07DX002 (ip), vehicle: saline).

In the case of `O=C(OCC1OC(n2cnc3c(=S)nc[nH]c32)C(OC(=O)c2ccc(Cl)cc2)C1OC(=O)c1ccc(Cl)cc1)c1ccc(Cl)cc1` (configuration not stated), the T/C runs as follows: under setting [3], 85 % of control; (dose: 400.0 mg/kg/injection, schedule: Q01DX011 (ip), vehicle: carboxymethylcellulose (CMC)) 1 % of control and 5 % of control.

On to `CCCCn1cnc2c([N+](C)(C)C)ncnc21`, for which the T/C (dose: 3.75 mg/kg/injection, schedule: Q01DX011 (ip), vehicle: carboxymethylcellulose (CMC)) was 66 % of control; the T/C under setting [4] was 33 % of control and 38 % of control.

As for `C/C(=N\NC(=O)c1ccncc1)c1ccc(Cl)cc1Cl`, the T/C was 41 % of control (dose: 30.0 mg/kg/injection, schedule: Q01DX011 (ip), vehicle: methylcellulose (MC)) and 58 % of control (dose: 60.0 mg/kg/injection, schedule: Q01DX011 (ip), vehicle: methylcellulose (MC)).

Take `CN(C)[C@@H]1C(=O)C(C(=O)NCc2nc3[nH]cnc(=S)c3[nH]2)=C(O)[C@@]2(O)C(=O)C3=C(O)c4c(O)cccc4[C@@](C)(O)[C@H]3C[C@@H]12`: the T/C was 64 % of control (dose: 1.0 mg/kg/injection, schedule: Q01DX011 (ip), vehicle: carboxymethylcellulose (CMC)); 44 % of control (dose: 2.0 mg/kg/injection, schedule: Q01DX011 (ip), vehicle: carboxymethylcellulose (CMC)); 78 % of control (dose: 3.0 mg/kg/injection, schedule: Q01DX011 (ip), vehicle: carboxymethylcellulose (CMC)); 62 % of control (dose: 4.0 mg/kg/injection, schedule: Q01DX011 (ip), vehicle: carboxymethylcellulose (CMC)); 1 % of control and 3 % of control and 5 % of control (dose: 14.0 mg/kg/injection, schedule: Q01DX011 (ip), vehicle: carboxymethylcellulose (CMC)); 1 % of control and 2 % of control (dose: 28.0 mg/kg/injection, schedule: Q01DX011 (ip), vehicle: carboxymethylcellulose (CMC)). Also, for the setting “dose: 56.0 mg/kg/injection, schedule: Q01DX011 (ip), vehicle: carboxymethylcellulose (CMC)”, the T/C is 6 % of control.

As to `Nc1nc(C(F)(F)F)c2ncn(Cc3ccccc3)c2n1`, the T/C is, setting by setting: under setting [5], 92 % of control; (dose: 120.0 mg/kg/injection, schedule: Q01DX011 (ip), vehicle: carboxymethylcellulose (CMC)) 123 % of control.

In the case of `Cc1nc(Cl)c(C#N)c(C(F)(F)F)c1N`, the T/C (dose: 100.0 mg/kg/injection, schedule: Q01DX011 (ip), vehicle: carboxymethylcellulose (CMC)) is 153 % of control.

Regarding `COS(C)(=O)=O`, the T/C (dose: 25.0 mg/kg/injection, schedule: Q01DX011 (ip), vehicle: carboxymethylcellulose (CMC)) was 113 % of control and the T/C under setting [3] is 88 % of control.

Consider `CCCCNCC(C)C(=O)OC` (configuration not stated), for which the T/C was 92 % of control under setting [6]; 93 % of control under setting [7]; 87 % of control under setting [8]; 104 % of control under setting [1]; 104 % of control under setting [2].

Turning to `CSc1cc(NCc2ccccc2)nc(N)n1`, the T/C is, setting by setting: (dose: 25.0 mg/kg/injection, schedule: Q01DX011 (ip), vehicle: methylcellulose (MC)) 85 % of control; (dose: 75.0 mg/kg/injection, schedule: Q01DX011 (ip), vehicle: methylcellulose (MC)) 65 % of control.

Turning to `CN1Cc2c(ccc3c2OCO3)[C@@H]2[C@H](O)Cc3cc4c(cc3[C@@H]21)OCO4`, the T/C is 167 % of control (dose: 150.0 mg/kg/injection, schedule: Q01DX011 (ip), vehicle: carboxymethylcellulose (CMC)) and 51 % of control (dose: 300.0 mg/kg/injection, schedule: Q01DX011 (ip), vehicle: carboxymethylcellulose (CMC)).

Take `[N-]=[N+]=NC1(C(=O)O)CCCC1`: the T/C is, setting by setting: under setting [4], 109 % of control; (dose: 30.0 mg/kg/injection, schedule: Q01DX011 (ip), vehicle: carboxymethylcellulose (CMC)) 100 % of control; under setting [5], 120 % of control.

On to `CCN(CC)c1nc(SCc2ccc(Cl)cc2Cl)ncc1C`, for which the T/C under setting [6] is 56 % of control; the T/C under setting [7] was 89 % of control; the T/C under setting [8] was 71 % of control; the T/C under setting [1] was 61 % of control; the T/C under setting [2] is 54 % of control.

Turning to `CSc1ncc(C)c(Nc2ccc(Br)cc2)n1`, the T/C reads like this: under setting [6], 111 % of control; under setting [7], 109 % of control.
